Converted amounts (≈) assume the structure as drawn.
Key:
[1] = system: Faecalibacterium prausnitzii A2-165; experiment: MIC by CLSI broth microdilution, type strain; type: cell-based; design: MIC: unit not given beside the values; settings: for MIC breakpoint class: test strain A2-165, breakpoints per antibiotic in c1-c3
[2] = system: Faecalibacterium prausnitzii EB-FPDK11; experiment: MIC by CLSI broth microdilution, isolated strain; type: cell-based; design: MIC: unit not given beside the values; settings: for resistance or sensitivity of the EB-FPDK11 strain to the antibiotic: Table 5; for MIC breakpoint class: test strain EB-FPDK11, breakpoints per antibiotic in c1-c3
[3] = system: Bacteroides thetiotaomicron ATCC 29741; experiment: MIC by CLSI broth microdilution, QC strain; type: cell-based; settings: ATCC29741
NC/Nga mice [4] = experiment: Spleen weight; type: in vivo; settings: after 6 weeks oral treatment, compared to atopic dermatitis-induced group (DNCB)
Protocol: (§1) The Faecalibacterium prausnitzii A2-165 strain and Faecalibacterium prausnitzii EB-FPDK11 live bacteria used in this experiment were prepared at a concentration of 1×10^8 CFU/150 μl PBS (25% glycerol, 0.05% cysteine/PBS).
(§2) To observe atopic dermatitis lesions, 6-week-old NC/Nga mice (weighed about 21 to 25 g, SLC, Inc., Japan) were purchased from Daehan Biolink Co., Ltd. (Chungbuk, Korea). Animal tests were carried out in accordance with the Animal use and Care Protocol of the Institutional Animal Care and Use Committee (IACUC). The animals were acclimated for one week, and then raised for 9 weeks at a constant temperature of 22° C. and a relative humidity of 50 to 60% with a 12-hr light/12-hr dark cycle.
(§3) The backs of 6-week-old NC/Nga mice were shaved clean, and then left to stand for 24 hours so that fine wounds of the skin were healed. […]
Thus, the weight of the spleen was measured to observe the effect of the composition for preventing atopic dermatitis on the immune organs of NC/Nga mice with atopic dermatitis induced by DNCB. […] The collected spleen tissue was washed with physiological saline and then dried, and the weights thereof were measured using a microbalance and the sizes thereof were visually observed.

NC/Nga mice [5] = experiment: Ear edema caused by atopic dermatitis (thickness gauge); type: in vivo; settings: at 6 weeks; normal group 0.55 mm, DNCB group 1.50 mm
Protocol: as §1, §2
(§4) The backs of 6-week-old NC/Nga mice were shaved clean, and then left to stand for 24 hours so that fine wounds of the skin were healed. 1% 2,4-dinitrochlorobenzene (DNCB) solution (Sigma-Aldrich Korea) was applied to the back of each mouse twice a week for 3 weeks to induce an immune response, and then 0.5% DNCB solution was applied twice a week to induce contact dermatitis. […]
After completion of the experiment, the mice were sacrificed by anesthetizing with CO2, and then the degree of edema of both ears was measured by the velocity transformation technique using a thickness gauge (Digimatic thickness gauge, 547-301, Mitutoyo, Japan).

Th2/Th1 cytokines = experiment: Ratio of Th2/Th1 cytokines in serum; type: in vivo, mice
Protocol: as §1
as §2, with “cycle. […]” for “cycle.”
(§5) At the end of the experiment, the mice were anesthetized with CO2, and blood was collected by cardiac puncture. […] The concentrations of IL-4, IL-12, IFN-γ and IL-6 cytokines were measured using an ELISA kit (Invitrogen, CA, USA), and the results of the measurement are shown in FIGS. 16 and 17.
From an immunological point of view, allergenic atopic dermatitis is a disease caused by an excessive imbalance between Th1 and Th2 immune responses. Thus, the cytokine concentrations measured as described above were expressed as the ratio of Th2/Th1 cytokines, and the results are shown in FIGS. 18 and 19.

IL-6 = experiment: Serum cytokine concentration (ELISA), IL-6; type: in vivo, mice; settings: mouse blood, compared to atopic dermatitis-induced group (DNCB)
Protocol: as §1, §2, §3
After induction of atopic dermatitis, the concentrations of cytokines related to Th1 and Th2 were measured to examine the immune response resulting from administration of the Faecalibacterium prausnitzii EB-FPDK11 strain of the present invention. […]
as §5

NC/Nga mice [6] = experiment: Scratching frequency; type: in vivo; settings: scratching for 10 minutes, day before end, compared to atopic dermatitis-induced group
Protocol: as §1, §2, §4
The day before the end of the experiment, the frequency of scratching the affected area due to itching was measured. For measurement of the frequency of scratching, each mouse was acclimated for 10 minutes, and then the frequency of scratching for 10 minutes was measured using a counter.

IgE = experiment: Serum IgE concentration (ELISA); type: in vivo, mice; settings: end of experiment, compared to DNCB group (1545.08 ng/ml)
Protocol: as §1, §2, §4
At the end of the experiment, each of the mice was anesthetized with CO2 and blood was collected by cardiac puncture. The collected blood was centrifuged at 10,000 rpm for 5 minutes to separate the serum, and the serum IgE concentration was measured. […]

## O=C(N[C@H](CO)[C@H](O)c1ccc([N+](=O)[O-])cc1)C(Cl)Cl [CHL, chloramphenicol]
[1]
  MIC breakpoint class: (R)
[2]
  resistance or sensitivity of the EB-FPDK11 strain to the antibiotic: sensitivity
  MIC breakpoint class: (S)

## CCC[C@@H]1C[C@@H](C(=O)N[C@@H]([C@H]2O[C@H](SC)[C@H](O)[C@@H](O)[C@H]2O)[C@H](C)Cl)N(C)C1 [CLI, clindamycin]
[1]
  MIC breakpoint class: (S)
[2]
  MIC breakpoint class: (S)

## CO/N=C(\C(=O)N[C@@H]1C(=O)N2C(C(=O)O)=CCS[C@H]12)c1csc(N)n1 [CTZ, ceftizoxime]
[1]
  MIC breakpoint class: (I)
[2]
  resistance or sensitivity of the EB-FPDK11 strain to the antibiotic: resistance
  MIC breakpoint class: (R)

## C[C@@H](O)[C@H]1C(=O)N2C(C(=O)O)=C(S[C@@H]3CN[C@H](C(=O)N(C)C)C3)[C@H](C)[C@H]12 [MEM, meropenem]
[1]
  MIC breakpoint class: (R)
[2]
  resistance or sensitivity of the EB-FPDK11 strain to the antibiotic: resistance
  MIC breakpoint class: (R)
[3]
  MIC: 0.5 µg/mL (≈ 1.3 µM)

## Cc1ncc([N+](=O)[O-])n1CCO [MTZ, metronidazole]
[1]
  MIC breakpoint class: (S)
[2]
  resistance or sensitivity of the EB-FPDK11 strain to the antibiotic: sensitivity
  MIC breakpoint class: (S)

## COc1c(N2C[C@@H]3CCCN[C@@H]3C2)c(F)cc2c(=O)c(C(=O)O)cn(C3CC3)c12 [MXF, moxifloxacin]
[1]
  MIC breakpoint class: (R)
[2]
  MIC breakpoint class: (R)

## C[C@@H]1C[C@H]2[C@@H]3CCC4=CC(=O)C=C[C@]4(C)[C@@]3(F)[C@@H](O)C[C@]2(C)[C@@]1(O)C(=O)CO [dexamethasone]
NC/Nga mice [4]
  decrease in spleen weight: 23.26%
NC/Nga mice [5]
  ear edema: 1.00 mm
Th2/Th1 cytokines; compared to atopic dermatitis-induced group
  decrease in IL-4/IL-12 ratio: 23.7%
Th2/Th1 cytokines; compared to atopic dermatitis-induced group (DNCB)
  decrease in ratio of IL-6/IL-12: 35.8%
IL-6
  decrease in IL-6 concentration: 35.5%
NC/Nga mice [6]
  decrease in frequency of scratching: about 59.4%
IgE
  decrease in serum IgE concentration: 40.70%

## Piperacillin-tazobactam [PTZ]
[1]; test strain A2-165, broth microdilution
  MIC: ≤256/4
[1]
  MIC breakpoint class: (R)
[2]
  resistance or sensitivity of the EB-FPDK11 strain to the antibiotic: resistance
  MIC breakpoint class: (R)
[2]; test strain EB-FPDK11, broth microdilution
  MIC: ≤256/4

From patent US12622934B2, “Pharmaceutical composition for preventing or treating atopic disease containing Faecalibacterium prausnitzii strain” (ENTEROBIOME INC., priority 2020, dated 2026)
